In US12428406B2 (PMV Pharmaceuticals, Inc., priority 2019, dated 2025):

Target: T1, p53 Y220C (Homo sapiens, UniProt P04637, Y220C)
T1 construct: The recombinant protein was a truncation mutant containing only amino acids 94-312 of p53; made in house; host or cells: E. coli
Test: In vitro DNA binding activity assay (HTRF / TR-FRET): stabilization of p53 Y220C and increase of its DNA binding activity
Type: biochemical
Conditions: recombinant His-tagged p53 Y220C DNA binding domain (aa 94-312), biotin-labeled consensus DNA, incubated at 27° C. or 29° C. for 60 min
Method in brief: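 E. coli His-p53 Y220C + biotin consensus DNA; anti-His-APC/SA-Eu TR-FRET. SC150 vs no-compound.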

T1 sequence (P04637 94-312, change not shown): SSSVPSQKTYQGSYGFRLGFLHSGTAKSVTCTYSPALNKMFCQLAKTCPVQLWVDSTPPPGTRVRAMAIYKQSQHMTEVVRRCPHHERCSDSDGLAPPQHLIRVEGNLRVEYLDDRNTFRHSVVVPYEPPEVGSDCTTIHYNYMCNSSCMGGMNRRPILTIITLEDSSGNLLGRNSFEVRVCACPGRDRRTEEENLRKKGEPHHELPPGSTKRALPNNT

Row | SMILES | SC150 (concentration of the compound required to increase the DNA binding activity by 50%)
1 | COc1cc(S(C)(=O)=O)ccc1NCC#Cc1cc2c(NC3CC4(CNC4)C3)cccc2n1CC(F)(F)F [Compound 22A, N-{2-azaspiro[3.3]heptan-6-yl}-2-{3-[(4-methane-sulfonyl-2-methoxy-phenyl)amino]prop-1-yn-1-yl}-1-(2,2,2-trifluoroethyl)-1H-indol-4-amine] | + (+ = 0 μM ≤ SC150 < 0.05 μM)
2 | CNC(=O)c1ccc(NCC#Cc2cc3c(N[C@H]4CC[C@H](NC)CC4)cccc3n2CC(F)(F)F)c(OC)c1 [Compound 23A, 3-methoxy-N-methyl-4-{[3-(4-{[(1R,4R)-4-(methylamino)cyclo-hexyl]amino}-1-(2,2,2-trifluoroethyl)-1H-indol-2-yl)prop-2-yn-1-yl]amino}benzamide] | + (+ = 0 μM ≤ SC150 < 0.05 μM)
3 | CNC(=O)c1ccc(NCC#Cc2cc3c(N[C@H]4CC[C@H](N)CC4)cccc3n2CC(F)(F)F)c(OC)c1 [Compound 24A, 3-methoxy-N-methyl-4-{[3-(4-{[(1R,4R)-4-aminocyclo-hexyl]amino}-1-(2,2,2-trifluoroethyl)-1H-indol-2-yl)prop-2-yn-1-yl]amino}benzamide] | + (+ = 0 μM ≤ SC150 < 0.05 μM)
4 | CNC(=O)c1ccc(NCC#Cc2cc3c(N[C@H]4CC[C@@H](N)CC4)cccc3n2CC(F)(F)F)c(OC)c1 [Compound 25A, 3-methoxy-N-methyl-4-{[3-(4-{[(1S,4S)-4-aminocyclohexyl]amino}-1-(2,2,2-trifluoroethyl)-1H-indol-2-yl)prop-2-yn-1-yl]amino}benzamide] | + (+ = 0 μM ≤ SC150 < 0.05 μM)
5 | COc1cc(S(C)(=O)=O)ccc1NCC#Cc1cc2c(N[C@@H]3CCCC[C@@H]3N)cccc2n1CC(F)(F)F [Compound 28A, (1R,2S)-N^1-(2-{3-[(4-methanesulfonyl-2-methoxyphenyl)amino]prop-1-yn-1-yl}-1-(2,2,2-trifluoroethyl)-1H-indol-4-yl)cyclo-hexane-1,2-diamine] | ++ (++ = 0.05 μM ≤ SC150 < 0.1 μM)
6 | CNC(=O)c1ccc(NCC#Cc2cc3c(N[C@H]4CC[C@](C)(O)CC4)cccc3n2CC(F)(F)F)c(OC)c1 [Compound 31A, 3-methoxy-N-methyl-4-{[3-(4-{[(1R,4R)-4-hydroxy-4-methylcyclohexyl]amino}-1-(2,2,2-trifluoroethyl)-1H-indol-2-yl)prop-2-yn-1-yl]amino}benzamide] | + (+ = 0 μM ≤ SC150 < 0.05 μM)
7 | CNC(=O)c1ccc(NCC#Cc2cc3c(N[C@H]4CC[C@@](C)(O)CC4)cccc3n2CC(F)(F)F)c(OC)c1 [Compound 32A, 3-methoxy-N-methyl-4-{[3-(4-{[(1S,4S)-4-hydroxy-4-methylcyclohexyl]amino}-1-(2,2,2-trifluoroethyl)-1H-indol-2-yl)prop-2-yn-1-yl]amino}benzamide] | + (+ = 0 μM ≤ SC150 < 0.05 μM)
8 | CNC(=O)c1ccc(NCC#Cc2cc3c(NC4CCC(C#N)CC4)cccc3n2CC(F)(F)F)c(OC)c1 (stereo not drawn) [Compound 33A, 4-[(3-{4-[(4-cyanocyclohexyl)amino]-1-(2,2,2-trifluoroethyl)-1H-indol-2-yl}prop-2-yn-1-yl)amino]-3-methoxy-N-methylbenzamide] | + (+ = 0 μM ≤ SC150 < 0.05 μM)
9 | CNC(=O)c1ccc(NCC#Cc2cc3c(N[C@H]4CC[C@H](C#N)CC4)cccc3n2CC(F)(F)F)c(OC)c1 [Compound 34A, 3-methoxy-N-methyl-4-{[3-(4-{[(1R,4R)-4-cyanocyclohexyl]amino}-1-(2,2,2-trifluoroethyl)-1H-indol-2-yl)prop-2-yn-1-yl]amino}benzamide] | + (+ = 0 μM ≤ SC150 < 0.05 μM)
10 | CNC(=O)c1ccc(NCC#Cc2cc3c(N[C@H]4CC[C@@H](C#N)CC4)cccc3n2CC(F)(F)F)c(OC)c1 [Compound 35A, 3-methoxy-N-methyl-4-{[3-(4-{[(1S,4S)-4-cyanocyclohexyl]amino}-1-(2,2,2-trifluoroethyl)-1H-indol-2-yl)prop-2-yn-1-yl]amino}benzamide] | + (+ = 0 μM ≤ SC150 < 0.05 μM)
11 | COc1cc(S(C)(=O)=O)ccc1NCC#Cc1cc2c(NC3CCCC(C(=O)O)C3)cccc2n1CC(F)(F)F (stereo not drawn) [Compound 36A, 3-[(2-{3-[(4-methane-sulfonyl-2-methoxy-phenyl)amino]prop-1-yn-1-yl}-1-(2,2,2-trifluoroethyl)-1H-indol-4-yl)amino] cyclohexane-1-carboxylic acid] | +++ (+++ = 0.1 μM ≤ SC150 < 0.2 μM)
12 | COc1cc(S(C)(=O)=O)ccc1NCC#Cc1cc2c(NC3CCC(N)CC3F)cccc2n1CC(F)(F)F (stereo not drawn) [Compound 37A] | + (+ = 0 μM ≤ SC150 < 0.05 μM)
13 | CNC1CCC(Nc2cccc3c2cc(C#CCNc2ccc(S(C)(=O)=O)cc2OC)n3CC(F)(F)F)C(F)C1 (stereo not drawn) [Compound 39A] | + (+ = 0 μM ≤ SC150 < 0.05 μM)
14 | COc1cc(S(C)(=O)=O)ccc1NCC#Cc1cc2c(NC3CCC(N(C)C)CC3F)cccc2n1CC(F)(F)F (stereo not drawn) [Compound 41A] | + (+ = 0 μM ≤ SC150 < 0.05 μM)
15 | COc1cc(S(C)(=O)=O)ccc1NCC#Cc1cc2c(N[C@@H]3CCC(O)C[C@@H]3F)cccc2n1CC(F)(F)F (stereo partly drawn) [Compound 43A, (3S,4R)-3-fluoro-4-[(2-{3-[(4-methanesulfonyl-2-methoxyphenyl)amino]prop-1-yn-1-yl}-1-(2,2,2-trifluoroethyl)-1H-indol-4-yl)amino]cyclohexan-1-ol] | + (+ = 0 μM ≤ SC150 < 0.05 μM)
16 | COc1cc(S(N)(=O)=O)ccc1NCC#Cc1cc2c(N[C@H]3CC[C@H](N(CCO)CCO)CC3)cccc2n1CC(F)(F)F [Compound 44A, 3-methoxy-4-{[3-(4-{[(1R,4R)-4-[bis(2-hydroxyethyl)amino]cyclohexyl]amino}-1-(2,2,2-trifluoroethyl)-1H-indol-2-yl)prop-2-yn-1-yl]amino}benzene-1-sulfonamide] | + (+ = 0 μM ≤ SC150 < 0.05 μM)
17 | COc1cc(S(N)(=O)=O)ccc1NCC#Cc1cc2c(N[C@H]3CC[C@@H](N(CCO)CCO)CC3)cccc2n1CC(F)(F)F [Compound 45A, 3-methoxy-4-{[3-(4-{[(1S,4S)-4-[bis(2-hydroxyethyl)amino]cyclohexyl]amino}-1-(2,2,2-trifluoroethyl)-1H-indol-2-yl)prop-2-yn-1-yl]amino}benzene-1-sulfonamide] | + (+ = 0 μM ≤ SC150 < 0.05 μM)
18 | COc1cc(S(=O)(=O)Nc2ccon2)ccc1NCC#Cc1cc2c(N[C@H]3CC[C@H](N(C)C)CC3)cccc2n1CC(F)(F)F [Compound 48A, 3-methoxy-N-(1,2-oxazol-3-yl)-4-{[3-(4-{[(1R,4R)-4-(dimethylamino)cyclo-hexyl]amino}-l-(2,2,2-trifluoroethyl)-1H-indol-2-yl)prop-2-yn-1-yl]amino}benzene-1-sulfonamide] | + (+ = 0 μM ≤ SC150 < 0.05 μM)
